Values of other authors as cited in patent EP0404807B1, “DEPRENYL FOR SYSTEMIC TRANSDERMAL ADMINISTRATION” (SOMERSET PHARMACEUTICALS, INC., priority 1988, dated 1989).

Conditions: deprenyl alone, as stated in EP 0241809 A

Question: For `C#CCN(C)C(C)Cc1ccccc1` (stereo not shown) [deprenyl, N-methyl-N-(1-phenyl-2-propyl)-2-propinylamine], which anti-Parkinsonism action is on record?
Answer: almost no anti-Parkinsonism action
